We go through 24 compounds from US8871751B2, “Compositions and methods relating to nuclear hormone and steroid hormone receptors including inhibitors of estrogen receptor alpha-mediated gene expression and inhibition of breast cancer” (The Board of Trustees of the University of Illinois, priority 2008, dated 2014).

Molecules are shown by their SMILES. Bounds are passed on as bounds.

For test [1], the target named is T1, human ERα binding to flcERE (Homo sapiens, UniProt P03372).
T1 construct: Full-length FLAG-tagged human ERα was expressed and purified as described previously (27); FLAG; made in house
T1 sequence (P03372 1-595): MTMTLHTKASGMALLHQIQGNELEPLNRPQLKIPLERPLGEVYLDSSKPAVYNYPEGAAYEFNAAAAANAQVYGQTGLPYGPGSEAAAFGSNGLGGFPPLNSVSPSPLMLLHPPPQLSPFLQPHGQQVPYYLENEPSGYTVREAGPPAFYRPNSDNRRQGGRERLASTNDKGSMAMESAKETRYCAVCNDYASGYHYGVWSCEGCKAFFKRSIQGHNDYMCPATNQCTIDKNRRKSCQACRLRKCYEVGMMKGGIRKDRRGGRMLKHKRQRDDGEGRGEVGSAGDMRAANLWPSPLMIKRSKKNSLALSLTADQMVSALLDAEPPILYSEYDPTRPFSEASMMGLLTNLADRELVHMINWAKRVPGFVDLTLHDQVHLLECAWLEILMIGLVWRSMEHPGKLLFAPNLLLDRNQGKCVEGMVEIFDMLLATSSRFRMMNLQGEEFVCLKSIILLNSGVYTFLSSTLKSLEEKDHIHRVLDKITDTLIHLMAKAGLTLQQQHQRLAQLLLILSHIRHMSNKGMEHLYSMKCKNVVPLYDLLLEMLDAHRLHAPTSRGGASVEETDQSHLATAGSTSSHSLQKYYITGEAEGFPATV
The test is described as follows: FAMA: inhibition of ERα binding to flcERE. The conditions noted are these: FAMA, binding to HRE, 5 concentrations 0.5-10 μM, sequential method; read-out: IC50 ERα. Here is the method: Prior to screening, the 10 mM library stocks were diluted to produce replica libraries in 384-well plates containing each small molecule at 0.25 mM (in DMSO). In our initial studies we were concerned that forming the flcERE-ERα complex first and then adding the candidate small molecule inhibitors would miss small molecules that bind at the interface. We therefore screened using the “sequential” method in which the candidate small molecules were first incubated with ERα and followed by addition of the flcERE. The assay for binding of ERα to the flcERE is a modification of our earlier assay (27). Assays were carried out at room temperature in black wall 384-well microplates (Greiner/Bio-One) in a total volume of 10 μl in buffer containing 20 mM Tris pH 7.5, 10% glycerol, 0.2 mM EDTA, 2 mM DTT, 100 mM KCl, 0.5 ng/μl poly dl:dC, […] bovine serum albumin and 100 nM 17β-estradiol (E2). For high throughput screening, a master mix without ERα and probe was prepared at 4° C. The master mix was divided into 2 parts. ERα was added to one part to 5 nM in the final assays. 7 μl of the ERα-containing mix was then dispensed into each well of a 384-well plate on ice. 100 nl of the compounds being tested was then added using a pin-transporter (V & P Scientific, Inc, CA) to a final concentration of 2.5 μM. The samples were mixed using the pin-transporter and sedimented by centrifugation for 2 min. at 4° C. and incubated on ice for 10 min. The flcERE probe was added to the other aliquot of the mix to 1 nM. 3 μl of the mix containing the flcERE probe was added to each well containing ERα and the test compound. The samples were mixed using the pin-transporter, the plates were briefly centrifuged and incubated at room temperature for 10 min. and fluorescence anisotropy (FA) was measured using a BMG PheraStar (BMG Labtech) microplate reader (module: 485 520) with excitation at 485λ and emission at 520λ. To identify small molecules that were highly fluorescent, or quench fluorescence, fluorescence intensity was also measured.
(§1) Dose response curves for selected compounds were carried out as described for the HTS screen except that each well contained the indicated concentration of test compound. PR assays were carried out in the same buffer used for ERα assays and contained 1 nM flcPRE and 11 nM PR-B and 100 nM progesterone. The buffer used for AR was similar but also contained 5 μM ZnCl, 5 mM NaF, 0.6 μM CHAPS and 100 nM dihydrotestosterone. AR assays contained 1 nM flcARE and 50 nM full-length wild-type AR.

Test [2] has as its target T2, human androgen receptor (AR) binding to flARE (Homo sapiens, UniProt P10275).
T2 construct: AR assays contained 1 nM flcARE and 50 nM full-length wild-type AR; FLAG; made in house
T2 sequence (P10275 1-920): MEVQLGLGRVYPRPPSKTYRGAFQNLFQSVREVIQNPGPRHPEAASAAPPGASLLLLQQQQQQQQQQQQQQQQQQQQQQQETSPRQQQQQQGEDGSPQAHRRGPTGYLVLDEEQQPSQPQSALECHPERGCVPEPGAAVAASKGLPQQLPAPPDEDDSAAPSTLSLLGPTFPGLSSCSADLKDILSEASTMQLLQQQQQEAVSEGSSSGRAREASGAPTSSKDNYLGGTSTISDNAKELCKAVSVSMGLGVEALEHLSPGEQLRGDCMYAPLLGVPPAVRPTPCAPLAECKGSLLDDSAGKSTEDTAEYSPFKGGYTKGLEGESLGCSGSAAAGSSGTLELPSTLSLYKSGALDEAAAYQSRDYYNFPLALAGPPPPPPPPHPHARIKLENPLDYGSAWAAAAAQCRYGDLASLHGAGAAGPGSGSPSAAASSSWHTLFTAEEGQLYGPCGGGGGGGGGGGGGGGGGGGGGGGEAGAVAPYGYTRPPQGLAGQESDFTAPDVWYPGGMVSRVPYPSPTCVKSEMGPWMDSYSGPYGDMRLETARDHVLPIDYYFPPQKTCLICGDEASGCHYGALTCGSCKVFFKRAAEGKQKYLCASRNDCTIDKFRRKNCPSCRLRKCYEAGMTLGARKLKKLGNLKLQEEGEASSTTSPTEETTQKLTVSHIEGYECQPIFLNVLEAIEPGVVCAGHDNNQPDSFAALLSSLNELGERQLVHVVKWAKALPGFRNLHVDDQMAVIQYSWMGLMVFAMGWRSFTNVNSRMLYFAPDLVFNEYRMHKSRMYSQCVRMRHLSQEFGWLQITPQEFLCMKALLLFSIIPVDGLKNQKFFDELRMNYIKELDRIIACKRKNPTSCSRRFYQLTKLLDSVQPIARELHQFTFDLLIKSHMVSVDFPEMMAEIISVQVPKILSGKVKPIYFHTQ
As to the kind of experiment: FAMA: inhibition of AR binding to flcARE. The conditions noted are these: binding to HRE, 5 concentrations 0.5-10 μM, sequential method. Here is the method:
as §1
(§2) Specificity was evaluated in dose-response studies by quantitative FAMA using purified full-length human PR binding to a fluorescein-labeled progesterone/glucocorticoid response element (flPRE) and full-length human androgen receptor (AR) binding to a fluorescein-labeled androgen response element (flARE).

Test [3] concerns the target T3, human PR-B binding to flPRE (Homo sapiens, UniProt P06401).
T3 construct: FLAG; made in house
T3 sequence (P06401 1-933): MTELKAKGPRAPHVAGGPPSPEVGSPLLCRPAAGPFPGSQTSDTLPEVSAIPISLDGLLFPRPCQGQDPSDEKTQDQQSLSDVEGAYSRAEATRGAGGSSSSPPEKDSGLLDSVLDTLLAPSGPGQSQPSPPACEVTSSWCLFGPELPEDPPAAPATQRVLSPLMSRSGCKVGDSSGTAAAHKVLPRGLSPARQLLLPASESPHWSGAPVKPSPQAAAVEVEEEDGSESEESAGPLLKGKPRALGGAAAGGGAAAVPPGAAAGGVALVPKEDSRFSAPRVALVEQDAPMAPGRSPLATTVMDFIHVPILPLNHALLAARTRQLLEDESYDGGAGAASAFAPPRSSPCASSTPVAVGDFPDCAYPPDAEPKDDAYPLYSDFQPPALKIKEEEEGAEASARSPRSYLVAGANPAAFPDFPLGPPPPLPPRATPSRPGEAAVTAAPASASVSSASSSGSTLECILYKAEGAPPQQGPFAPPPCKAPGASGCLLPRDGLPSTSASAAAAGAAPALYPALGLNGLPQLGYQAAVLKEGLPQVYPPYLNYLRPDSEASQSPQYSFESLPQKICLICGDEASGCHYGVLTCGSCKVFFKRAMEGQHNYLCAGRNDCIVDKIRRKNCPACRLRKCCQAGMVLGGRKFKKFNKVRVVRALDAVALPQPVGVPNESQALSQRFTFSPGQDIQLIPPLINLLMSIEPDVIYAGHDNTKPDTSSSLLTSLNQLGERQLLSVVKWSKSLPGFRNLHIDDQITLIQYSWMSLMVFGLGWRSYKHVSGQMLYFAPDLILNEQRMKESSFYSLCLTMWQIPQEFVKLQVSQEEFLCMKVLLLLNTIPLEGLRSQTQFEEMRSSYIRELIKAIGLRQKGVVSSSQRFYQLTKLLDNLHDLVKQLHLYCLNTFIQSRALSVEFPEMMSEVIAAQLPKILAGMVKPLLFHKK
The test is described as follows: FAMA: inhibition of PR binding to flcPRE. Conditions: binding to HRE, 5 concentrations 0.5-10 μM, sequential method. Here is the method: as §1, §2

With `O=C1C(CO)C(CO)C(CO)C1CO` (stereo not shown) [Compound 9064], the IC50 in test [1], in test [2] and in test [3] was more than 10 µM in each case.
`CCCCCCCCCCCCCCCC[N+](C)(C)CCN(Cc1ccc(OC)cc1)c1ncccn1` [Compound 5648]: the results for the IC50 in test [1], in test [2] and in test [3] were 6.5 µM, 4.5 µM and 7.3 µM, respectively.
`O=[N+]([O-])/C=C/c1ccco1` [Compound 5650]: the figures for the IC50 in test [1], in test [2] and in test [3] were 8 µM, 5.5 µM and 7.5 µM, respectively.
As for `O=C(O)c1cccc(N=Nc2c(S(=O)(=O)O)ccc3c2C(=O)c2ccccc2C3=O)c1O` [Compound 125908], the results for the IC50 in test [1], in test [2] and in test [3] were 3.8 µM, more than 10 µM and more than 10 µM, respectively.
Regarding `Nc1c(S(=O)(=O)O)cc(Nc2ccc(S(=O)(=O)O)c(Nc3nc(Cl)nc(Cl)n3)c2)c2c1C(=O)c1ccccc1C2=O` [Compound 9545], the values for the IC50 in test [1], in test [2] and in test [3] were 0.7 µM, 3 µM and 3.8 µM, respectively.
As to `CC(C)CCOC(=S)S` [Compound 4864], the IC50 (usually the midpoint of a concentration-inhibition curve) in test [1] worked out at 8 µM; in test [2], 6.5 µM; in test [3] it was 8.8 µM.
Consider `NNC(=O)OCc1ccccc1` [Compound 2287], for which the IC50 in test [1] stood at 2.1 µM; in test [2], 1.7 µM; in test [3], 2.7 µM.
For `O=C1NC(=S)NC(=O)C1=Cc1cccc2cc3ccccc3cc12` [Compound 90737], the IC50 is 10 µM in test [1], more than 10 µM in test [2] and more than 10 µM in test [3].
For `CN(C)c1ncnc2c1cnn2-c1ccc(Cl)cc1` [Compound 1445], the IC50 worked out at 0.6 µM in test [1], 0.7 µM in test [2] and 1.2 µM in test [3].
In the case of `O=C(OC1C2COC(O2)C(OC(=O)c2ccccc2)C1OC(=O)c1ccccc1)c1ccccc1` (stereo not shown) [Compound 1387], the IC50 in test [1] was found to be 4.5 µM; in test [2] it was 4.8 µM; in test [3], 6.5 µM.
The like results for `CC1=NNC(=S)NCCCN2CCN(CCCNC(=S)NN=C(C)C=NNC(=S)NCCCN3CCN(CCCNC(=S)NN=C1)CC3)CC2` [Compound 91767] were, in that order, 8 µM, more than 10 µM and more than 10 µM.
For `CCNc1ccc(-c2ccc(NCC)cc2)cc1` [Compound 2674], in that order: 5.5 µM, 5.8 µM and 6.2 µM.
For `C=CCOC(=O)c1ccc(Cl)cc1` [Compound 8216], the IC50 was 9 µM in test [1], more than 10 µM in test [2] and more than 10 µM in test [3].
As to `CC(=O)N(C)c1ccc(N)cc1` [Compound 7107], the results for the IC50 in test [1] and in test [3] were 5 µM and more than 10 µM, respectively.
For `Cc1ccccc1NCC(C)O` (stereo not shown) [Compound 7484], the results for the IC50 in test [1], in test [2] and in test [3] were 9.5 µM, more than 10 µM and more than 10 µM, respectively.
Take `CCN(CC)CCOC(=O)c1cc(Br)cc(-c2ccccc2)c1O` [Compound 7450]: the values for the IC50 in test [1], in test [2] and in test [3] were 9.8 µM, more than 10 µM and more than 10 µM, respectively.
As for `O=C(O)/C=C/c1ccc([N+](=O)[O-])cc1` [Compound 2067], the figures for the IC50 in test [1] and in test [2] were 5 µM and 3 µM, respectively.
Take `CCCCCCCC(=O)OC` [Compound 3710]: the IC50 in test [1] was found to be 2.5 µM; in test [3], 2.9 µM.
For `O=C(CCBr)OCCc1ccccc1` [Compound 7122], the IC50 in test [1] is 5 µM; in test [2], 7.5 µM.
`C=C(CC(=O)O)C(=O)O.C=CC(=O)O` [Compound 146443] displayed an IC50 in test [3] of 0.4 µM.
Turning to `CCc1c(O)c2c(c(O)c1C(C)=O)C(=O)c1c(cc(O)c(C(=O)O)c1C(=O)O)C2=O` [Compound 170008], the IC50 in test [1] and in test [2] was 9 µM each time.
In the case of `Nc1ccc(S(=O)(=O)c2ccc(NCN3C(=O)NC(=O)C(=O)C3=O)cc2)cc1` [Compound 34238], the IC50 is 1.8 µM in test [1] and more than 10 µM in test [3].
As to `O=[N+]([O-])c1ccc(CO)o1` [Compound 6454], the IC50 is 5.8 µM in test [1] and more than 10 µM in test [2].
In turn, `CCCCCCCCCC(=O)OC` [Compound 3713] returned an IC50 in test [3] of 7 µM.
